Test results from patent US20250034202A1 (The General Hospital Corporation, priority 2021, published 2025).
Where “and” joins values, the source holds several entries; their conditions need not be identical. Identical values can stand only once. Like-named read-outs stand apart in the source and are kept apart here.

Assays:
Keap1 Kelch domain = Keap1 Kelch domain (Homo sapiens, UniProt Q14145); assay: TR-FRET assay with full-length Keap1, Kelch domain; format: binding
Procedure: (§1) FIG. 5 contains a table showing apparent equilibrium dissociation constants for CS and CS-JQ1 toward Keap1-Kelch and Keap1-BTB domains.
(§2) Chemical synthesis: FITC-Ahx-[…]-CONH2 (FITC-KL9) peptide tracer was custom synthesized by Genscript (Piscataway, New Jersey). CDDO-FITC fluorescent tracer was prepared as previously described. Column purifications were performed on a Biotage Isolera 4 Purification System equipped with a 200-400 nm diode array detector. For normal phase flash purifications, Sorbtech Purity Flash Cartridges were used (CFC-52300-012-18 and CFC-52500-025-12). For reverse phase flash purifications, Biotage Sfar Bio C18 Duo 300 A, 20 μm cartridges were used (FSBD-0411-001). […] LC/MS data analysis was performed using Waters Masslynx V4.1 SCN 846 software. Proton and carbon nuclear magnetic resonance (1H and 13C NMR spectra) were recorded on a Bruker Avance III 400 spectrometer using Topspin 3.2 software and data were analyzed using MestreNova (version 12.0.1-20560, Mestrelab Research). Chemical shifts for protons are reported in parts per million (ppm) and are referenced to residual solvent peaks. Data is reported as follows: chemical shift, multiplicity (s=singlet, br s, =broad singlet, d=doublet, t=triplet, q=quartet, p=pentet, m=multiplet), proton coupling constants (J, Hz), and integration. […]

Keap1 BTB domain = Keap1 BTB domain (Homo sapiens, UniProt Q14145); assay: TR-FRET ligand displacement assay with full-length Keap1, BTB domain (CDDO-based tracer); format: binding
Sequence of Keap1 BTB domain (Q14145 whole entry, the tested form may be a part): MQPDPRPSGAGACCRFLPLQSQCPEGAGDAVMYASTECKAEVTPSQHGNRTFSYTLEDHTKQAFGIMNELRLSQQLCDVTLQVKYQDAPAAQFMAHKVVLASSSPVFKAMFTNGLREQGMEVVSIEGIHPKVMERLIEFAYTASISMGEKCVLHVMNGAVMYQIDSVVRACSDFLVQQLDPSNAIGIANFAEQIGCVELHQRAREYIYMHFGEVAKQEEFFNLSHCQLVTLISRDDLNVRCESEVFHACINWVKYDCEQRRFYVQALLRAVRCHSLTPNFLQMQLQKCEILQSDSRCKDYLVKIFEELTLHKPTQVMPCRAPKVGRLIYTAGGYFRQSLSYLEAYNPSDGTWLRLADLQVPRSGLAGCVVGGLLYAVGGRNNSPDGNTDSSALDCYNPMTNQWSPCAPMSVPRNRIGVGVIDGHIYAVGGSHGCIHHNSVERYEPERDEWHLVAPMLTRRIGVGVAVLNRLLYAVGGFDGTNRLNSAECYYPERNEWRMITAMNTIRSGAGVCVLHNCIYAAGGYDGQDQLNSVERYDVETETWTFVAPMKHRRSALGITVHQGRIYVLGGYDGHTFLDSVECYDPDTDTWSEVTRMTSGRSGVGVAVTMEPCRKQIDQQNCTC
Procedure: as §1
as §2, with “Research).” for “Research). Chemical shifts for protons are reported in parts per million (ppm) and are referenced to residual solvent peaks. Data is reported as follows: chemical shift, multiplicity (s=singlet, br s, =broad singlet, d=doublet, t=triplet, q=quartet, p=pentet, m=multiplet), proton coupling constants (J, Hz), and integration.”
CS was discovered and validated as a promising new ligand for the redirection of E3 ligase activity. […] Since the binding affinity of CS and CS-JQ1 for BTB was determined in a ligand displacement assay using a CDDO-based tracer, it was reasonable to assume that CDDO-Me would efficiently displace CS-JQ1. […]

MDA = assay: Cell viability, breast cancer cells MDA; format: cell-based
MCF-7 = assay: Cell viability, breast cancer cells MCF-7; format: cell-based
MDA-BR = assay: Cell viability, breast cancer cells MDA-BR; format: cell-based
BT474 = assay: Cell viability, breast cancer cells BT474; format: cell-based
SJGBM2 = assay: Cell viability, pediatric glioma SJGBM2; format: cell-based
DIPG XIII [1] = assay: Cell viability, pediatric glioma DIPG XIII; format: cell-based
DIPG VI = assay: Cell viability, pediatric glioma DIPG VI; format: cell-based
DIPG IV = assay: Cell viability, pediatric glioma DIPG IV; format: cell-based
DIPG 50 = assay: Cell viability, pediatric glioma DIPG 50; format: cell-based
PHC (mice) = assay: Cell viability, pediatric glioma PHC (mice); format: cell-based; settings: Mus musculus
PKC (mice) = assay: Cell viability, pediatric glioma PKC (mice); format: cell-based; settings: Mus musculus
XFM (mice) = assay: Cell viability, pediatric glioma XFM (mice); format: cell-based; settings: Mus musculus
MES83 [2] = assay: Cell viability, adult glioma MES83; format: cell-based
GBM8 = assay: Cell viability, adult glioma GBM8; format: cell-based
CT2A (mice) = assay: Cell viability, adult glioma CT2A (mice); format: cell-based
MES236 = assay: Cell viability, adult glioma MES236; format: cell-based
MGG29 = assay: Cell viability, adult glioma MGG29; format: cell-based
PN84 = assay: Cell viability, adult glioma PN84; format: cell-based
U87 = assay: Cell viability, adult glioma U87; format: cell-based
MGG23 = assay: Cell viability, adult glioma MGG23; format: cell-based
MGG6 = assay: Cell viability, adult glioma MGG6; format: cell-based
M005 (mice) = assay: Cell viability, adult glioma M005 (mice); format: cell-based; settings: Mus musculus
[3] = cited from earlier work
BRD4 [4] = target: T1, BRD4 (Homo sapiens, UniProt O60885); assay: Rescue of CS-JQ1-induced BRD4 degradation by co-treatment; format: cell-based; settings: CS-JQ1 250 nM; BTZ, MLN7243, MLN4924 1 μM, JQ1 10 μM; MCF7 and MDA-MB-231 cells
DIPG XIII [5] = assay: Cell viability, CS and JQ1 combination, DIPG XIII; format: cell-based
MES83 [6] = assay: Cell viability, CS and JQ1 combination, MES83; format: cell-based
BRD4 [7] = target: T1, BRD4; assay: TR-FRET quantification of BRD4 levels after 5 h treatment, MCF7 cells; format: cell-based; settings: BRD4 degradation
Procedure: (§3) Mammalian cell culture: MCF7 cells (ATCC) were propagated in RPMI-1640 medium supplemented with 10% FBS, 1% pen-strep, and 1% L-glutamine at 37° C. and 5% CO2. MDA-MB-231 cells (ATCC) were propagated in DMEM medium supplemented with 10% FBS, and 1% pen-strep at 37° C. and 5% CO2.
(§4) TR-FRET measurements: unless otherwise noted, experiments were performed in white, 384-well microtiter plates (Corning 3572) in 30 μL assay volume. […] The 490/10 and 520/10 emission channels were acquired with a 50% mirror and a dichroic 510 mirror, respectively, using independently optimized detector gain settings unless specified otherwise. The TR-FRET ratio was taken as the 520/490 nm intensity ratio on a per-well basis.
(§5) Next, MCF7 and MDA-MB-231 cells were treated for 5 h with varying concentrations of CS-JQ1, followed by BRD4 quantification. […] Western blot analysis on the same samples yielded results that were again in excellent agreement (FIG. 1F-G).

BRD4 [8] = target: T1, BRD4; assay: TR-FRET quantification of BRD4 levels after 5 h treatment, MDA-MB-231 cells; format: cell-based; settings: BRD4 degradation
Procedure: as §3, §4, §5

BRD4 [9] = assay: TR-FRET ligand displacement, target engagement with BRD4; format: binding; settings: recombinant BRD4(BD1), BRD4(BD2), endogenous BRD4 in MCF7 cell extracts
[10] = test system: full-length Keap1 and BRD4(BD1) and BRD4(BD2); assay: CS-JQ1-induced ternary complex formation; format: binding; settings: wildtype full-length Keap1, isolated BRD4 (BD1) and BRD4 (BD2)
BRD4 [11] = assay: CDDO blockade of CS-JQ1-induced BRD4 degradation; format: cell-based; settings: MDA and MES83 cells; CDDO 100 nM or 5 μm, celastrol-JQ1 100 nM; CHX 3 μg/ml 1 h, 8 hour treatment

Sequence of Keap1 Kelch domain (Q14145 whole entry, the tested form may be a part): as above

SMILES | IC50 (MDA) | IC50 (MDA-BR) | IC50 (BT474; Homo sapiens, BT-474) | IC50 (SJGBM2) | IC50 (DIPG XIII [1]) | IC50 (DIPG VI) | IC50 (DIPG IV) | IC50 (DIPG 50) | IC50 (PHC (mice)) | IC50 (PKC (mice)) | IC50 (XFM (mice)) | IC50 (MES83 [2]) | IC50 (GBM8) | IC50 (MES236) | IC50 (MGG29) | IC50 (PN84) | IC50 (U87; Homo sapiens, U-87 MG) | IC50 (MGG23) | IC50 (MGG6) | Rescue of CS-JQ1-mediated BRD4 degradation by co-treatment (BRD4 [4]) | other results
CC1=C(O)C(=O)C=C2C1=CC=C1[C@@]2(C)CC[C@@]2(C)[C@@H]3C[C@](C)(C(=O)O)CC[C@]3(C)CC[C@]12C [Celastrol, (9β,13α,14β,20α)-3-hydroxy-9,13-dimethyl-2-oxo-24,25,26-Trinoroleana-1(10),3,5,7-tetraen-29-oic acid] | 1200 nM | 1710 nM | 511 nM | 1190 nM | 1910 nM and 1800 nM | 1360 nM | 2960 nM | 1600 nM | 310 nM | 170 nM | 276 nM | 1160 nM | 715 nM | 1270 nM | 1100 nM | 381 nM | 913 nM | 1810 nM | 1230 nM | – | Binding to Keap1 Kelch domain (Keap1 Kelch domain): low micromolar affinity; Affinity for Keap1 BTB domain (Keap1 BTB domain): low micromolar affinity; IC50 (MCF-7; Homo sapiens, MCF7): 3320 nM; IC50 (CT2A (mice); Mus musculus): 605 nM; IC50 (M005 (mice)): 874 nM; pKa [3]: about 4.8
CC(C)C[C@H](NC(=O)[C@H](Cc1ccccc1)NC(=O)c1cnccn1)B(O)O [BTZ] | – | – | – | – | – | – | – | – | – | – | – | – | – | – | – | – | – | – | – | substantially rescued | –
Cc1sc2c(c1C)C(c1ccc(Cl)cc1)=NC(CC(=O)OC(C)(C)C)c1nnc(C)n1-2 (stereo not shown) [JQ-1] | 6490 nM | > 10000 nM | > 10000 nM | 1580 nM | > 10000 nM | > 10000 nM | 1520 nM | > 10000 nM | 900 nM | 786 nM | > 10000 nM | 8120 nM | – | 3680 nM | > 10000 nM | 604 nM | 6950 nM | > 10000 nM | – | reduced CS-JQ1 degradation efficiency | IC50 (M005 (mice)): 751 nM; IC50 (DIPG XIII [5]): > 10000 nM; IC50 (MES83 [6]): 6380 nM
CC1=C(O)C(=O)C=C2C1=CC=C1[C@@]2(C)CC[C@@]2(C)[C@@H]3C[C@](C)(C(=O)NCCCOCCOCCOCCCNC(=O)CC4N=C(c5ccc(Cl)cc5)c5c(sc(C)c5C)-n5c(C)nnc54)CC[C@]3(C)CC[C@]12C (stereo partly drawn) [CS-JQ1, (2R,4aS,6aS,12bR,14aS,14bR)—N-(1-(4-(4-chlorophenyl)-2,3,9-trimethyl-6H-thieno[3,2-f][1,2,4]triazolo[4,3-a][1,4]diazepin-6-yl)-2-oxo-7,10,13-trioxa-3-azahexadecan-16-yl)-10-hydroxy-2,4a,6a,9,12b,14a-hexamethyl-11-oxo-1,2,3,4,4a,5,6,6a,11,12b,13,14,14a,14b-tetradecahydropicene-2-carboxamide] | 119 nM | 213 nM | 60.9 nM | 263 nM | 39 nM | 83.1 nM | 819 nM | 298 nM | 8.48 nM | 103 nM | 38.2 nM | 328 nM | 63.1 nM | 190 nM | 90.4 nM | 79.7 nM | 266 nM | 447 nM | 99.3 nM | – | Emax (BRD4 [7]): 21%; Emax,5h,MCF7 (BRD4 [7]): 21%; DC50 (BRD4 [7]; n=2): 0.029 ± 0.014 µM; Emax (BRD4 [8]): 12%; Emax,5h,MDA-MB-231 (BRD4 [8]): 12%; DC50 (BRD4 [8]; n=2): 0.016 ± 0.002 µM; Binding to BRD4 (BRD4 [9]): did not impair binding to BRD4; Binding to Keap1 Kelch domain (Keap1 Kelch domain): lost the ability to bind the Keap1 Kelch domain; Affinity for Keap1 BTB domain (Keap1 BTB domain): slightly improved affinity for the BTB domain; Ternary complex formation between Keap1 and BRD4 domains [10]: able to induce ternary complex formation; IC50 (MCF-7; Homo sapiens, MCF7): 409 nM; IC50 (DIPG XIII [1]; listed as Celastrol-JQ1): 46.5 nM; IC50 (CT2A (mice); Mus musculus): 142 nM; IC50 (PN84; listed as Celastrol-JQ1): 125 nM; IC50 (M005 (mice)): 23.6 nM
NS(=O)(=O)OC[C@@H]1C[C@@H](n2ccc3c(N[C@H]4CCc5ccccc54)ncnc32)C[C@@H]1O [MLN4924] | – | – | – | – | – | – | – | – | – | – | – | – | – | – | – | – | – | – | – | substantially rescued | –
NS(=O)(=O)OC[C@H]1C[C@@H](Nc2ccnc3cc(-c4cccc(SC(F)(F)F)c4)nn23)[C@H](O)[C@@H]1O [MLN7243] | – | – | – | – | – | – | – | – | – | – | – | – | – | – | – | – | – | – | – | substantially rescued | –
CC1(C)CC[C@]2(C(=O)O)CC[C@]3(C)[C@H](C(=O)C=C4[C@@]5(C)C=C(C#N)C(=O)C(C)(C)[C@@H]5CC[C@]43C)[C@@H]2C1 [CDDO] | 1220 nM | > 10000 nM | – | 2370 nM | 1410 nM | 1330 nM | 1360 nM | – | – | – | – | 1350 nM | 578 nM | 1280 nM | 828 nM | 278 nM | – | 2570 nM | 964 nM | – | Blockade of CS-JQ1-induced BRD4 degradation by CDDO pre-treatment (BRD4 [11]): blocks partially; IC50 (MCF-7): > 10000 nM; IC50 (BT474): 4840 nM; IC50 (CT2A (mice)): 2120 nM; IC50 (U87): 3700 nM
Cc1sc2c(c1C)C(c1ccc(Cl)cc1)=NC(CC(=O)NCCCOCCOCCOCCCNC(=O)[C@]13CCC(C)(C)C[C@H]1[C@H]1C(=O)C=C4[C@@]5(C)C=C(C#N)C(=O)C(C)(C)[C@@H]5CC[C@@]4(C)[C@]1(C)CC3)c1nnc(C)n1-2 (stereo partly shown) [CDDO-JQ1] | 748 nM | > 10000 nM | – | 635 nM | 694 nM | 277 nM | 894 nM | – | – | – | – | 1000 nM | 124 nM | 404 nM | 360 nM | 139 nM | – | 1850 nM | 357 nM | – | IC50 (MCF-7): 6600 nM; IC50 (BT474): 1680 nM; IC50 (CT2A (mice)): 747 nM; IC50 (U87): 746 nM
